Test results taken from patent publication US8192753B2, “pH-sensitive cationic lipids, and liposomes and nanocapsules containing the same” (Marina Biotech, Inc., priority 2002, dated 2012).

Test: Determination of pKa values by titration in 0.5% TRITON-X 100
Settings: lipid in 0.5% TRITON-X 100 in water, titrated with 20 mM NaOH from pH 3.0

With “4-(2-aminoethyl)morpholine-di-palmitoylglycerol succinate [#60]” the pKa was 7.2.
